Reference: PMC9090415, “Discovery of small molecule inhibitors of Plasmodium falciparum apicoplast DNA polymerase” (Journal of Enzyme Inhibition and Medicinal Chemistry, 2022)

Molecular target: P. falciparum apicoplast DNA polymerase (Pf-apPOL) (Plasmodium falciparum, UniProt Q8ILY1)
Assay: Fluorescence-based high-throughput DNA polymerase assay (molecular beacon), primary screen and dose-response;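 as to % inhibition ApPOL 90': test concentration in µM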;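 as to % inhibition apPOL 180': test concentration in µM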
Assay type: biochemical
Details: for DNA Pol: 90 min, 10 µM; for IC50: supplemental file 2, sheet IC50 nontoxic compounds, Pf-apPOL
Summary of the method: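 Single-point screening used 10 µM compound with 20 nM polymerase, 20 nM hairpin substrate and 6 µM dNTPs for 90 min at 25 °C. Confirmatory titrations (2.5–80 µM) followed fluorescence at three times, and IC50 was derived from a fit including a cooperativity term n.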

Sequence of P. falciparum apicoplast DNA polymerase (Pf-apPOL) (Q8ILY1 entry or part of it): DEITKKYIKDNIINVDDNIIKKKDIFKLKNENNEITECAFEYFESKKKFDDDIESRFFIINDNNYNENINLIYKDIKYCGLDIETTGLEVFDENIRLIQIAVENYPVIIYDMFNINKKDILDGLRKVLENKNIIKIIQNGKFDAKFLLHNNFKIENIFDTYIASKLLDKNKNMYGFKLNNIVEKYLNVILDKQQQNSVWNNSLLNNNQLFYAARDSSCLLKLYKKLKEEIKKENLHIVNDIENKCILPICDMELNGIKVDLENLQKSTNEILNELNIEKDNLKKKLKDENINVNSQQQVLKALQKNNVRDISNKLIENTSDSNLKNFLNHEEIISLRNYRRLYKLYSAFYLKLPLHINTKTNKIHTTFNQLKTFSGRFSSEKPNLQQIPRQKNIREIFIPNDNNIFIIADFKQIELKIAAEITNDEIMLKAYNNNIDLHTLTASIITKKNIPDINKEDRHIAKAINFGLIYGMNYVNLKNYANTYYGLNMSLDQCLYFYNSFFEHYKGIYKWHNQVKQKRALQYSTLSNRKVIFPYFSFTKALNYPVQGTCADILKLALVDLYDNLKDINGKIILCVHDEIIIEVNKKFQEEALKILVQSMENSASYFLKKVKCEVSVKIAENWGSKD

For `COc1ccc(NC(=O)Cn2ccc3c(=O)[nH]ccc32)cc1` [Molecule 13, COc1ccc(cc1)NC(=O)Cn1ccc2c1cc[nH]c2=O], the “% inhibition Apo pol 10'” value (DRC-1, concentration 2.5) was 9.9864%, the “% inhibition Apo pol 10'” value (DRC-1, concentration 5) was 32.1099% and the “% inhibition Apo pol 10'” value (DRC-1, concentration 10) was 65.6259%. For the same compound, the “% inhibition Apo pol 10'” value (DRC-1, concentration 20) was 81.849%, the “% inhibition Apo pol 10'” value (DRC-1, concentration 40) was 89.1437% and the “% inhibition Apo pol 10'” value (DRC-1, concentration 80) was 82.2361%. The “% inhibition Apol 90'” value (DRC-1, concentration 2.5) was 1.393%, the “% inhibition Apol 90'” value (DRC-1, concentration 5) was 18.8368% and the “% inhibition Apol 90'” value (DRC-1, concentration 10) was 50.5955%. For the same compound, the “% inhibition Apol 90'” value (DRC-1, concentration 20) was 73.6159%, the “% inhibition Apol 90'” value (DRC-1, concentration 40) was 87.1809% and the “% inhibition Apol 90'” value (DRC-1, concentration 80) was 85.204%. The “% inhibition apPOL 180'” value (DRC-1, concentration 2.5) was -3.687%, the “% inhibition apPOL 180'” value (DRC-1, concentration 5) was 7.549% and the “% inhibition apPOL 180'” value (DRC-1, concentration 10) was 35.4263%. For the same compound, the “% inhibition apPOL 180'” value (DRC-1, concentration 20) was 60.6819%, the “% inhibition apPOL 180'” value (DRC-1, concentration 40) was 82.9961% and the “% inhibition apPOL 180'” value (DRC-1, concentration 80) was 83.4711%. For the same compound, the “% inhibition Apo pol 5'” value (DRC-2, concentration 2.5) was 7%, the “% inhibition Apo pol 5'” value (DRC-2, concentration 5) was 18% and the “% inhibition Apo pol 5'” value (DRC-2, concentration 10) was 37%. The “% inhibition Apo pol 5'” value (DRC-2, concentration 20) was 47%, the “% inhibition Apo pol 5'” value (DRC-2, concentration 40) was 45% and the “% inhibition Apo pol 5'” value (DRC-2, concentration 80) was 40%. For the same compound, the “% inhibition Apol 40'” value (DRC-2, concentration 2.5) was 5.45%, the “% inhibition Apol 40'” value (DRC-2, concentration 5) was 19% and the “% inhibition Apol 40'” value (DRC-2, concentration 10) was 41%. The “% inhibition Apol 40'” value (DRC-2, concentration 20) was 65%, the “% inhibition Apol 40'” value (DRC-2, concentration 40) was 67% and the “% inhibition Apol 40'” value (DRC-2, concentration 80) was 65%. The “% inhibition ApPOL 90'” value (DRC-2, concentration 2.5) was 4%, the “% inhibition ApPOL 90'” value (DRC-2, concentration 5) was 16% and the “% inhibition ApPOL 90'” value (DRC-2, concentration 10) was 38%. For the same compound, the “% inhibition ApPOL 90'” value (DRC-2, concentration 20) was 66%, the “% inhibition ApPOL 90'” value (DRC-2, concentration 40) was 72% and the “% inhibition ApPOL 90'” value (DRC-2, concentration 80) was 70%. For the same compound, the “% inhibition apPOL 180'” value (DRC-2, concentration 2.5) was -2%, the “% inhibition apPOL 180'” value (DRC-2, concentration 5) was 7% and the “% inhibition apPOL 180'” value (DRC-2, concentration 10) was 27%. The “% inhibition apPOL 180'” value (DRC-2, concentration 20) was 63%, the “% inhibition apPOL 180'” value (DRC-2, concentration 40) was 74% and the “% inhibition apPOL 180'” value (DRC-2, concentration 80) was 76%. For the same compound, the “% inhibition Apo pol 5'” value (conc. 2.5, DRC-2) was 7%, the “% inhibition apPOL 180'” value (conc. 5, DRC-2) was 7% and the “% inhibition Apol 40'” value (conc. 20, DRC-2) was 65%. For the same compound, the “% inhibition Apol 40'” value (conc. 80, DRC-2) was 65%, the “DNA Pol” value (primary screen value by plate and well) was 53 and the “DNA Pol” value (primary screen value of the 186 hits, unit not given) was 53.

Work on `COc1ccc2c(c1)C(c1ccccc1OC)CC(=O)O2` (centres unmarked) [Molecule 38] yielded an IC50 of 11.2 µM.

For `CN(C)C=CC(=O)c1ccccn1` [Molecule 64], the IC50 was 18.5 µM.
